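GI50: concentration for 50% inhibition of growth. TGI denotes the concentration required for complete inhibition of growth.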
What was measured:
Assay in all cases: NCI tumour cell line growth inhibition, 384-well format
BT-549 breast = system: BT-549 breast
SK-OV-3 ovarian = system: SK-OV-3 ovarian
SF-268 CNS = system: SF-268 CNS
CAKI-1 renal = system: CAKI-1 renal
NCI-H522 lung = system: NCI-H522 lung
SK-MEL-2 melanoma = system: SK-MEL-2 melanoma
NCI-H226 lung = system: NCI-H226 lung
UO-31 renal = system: UO-31 renal
SF-539 CNS = system: SF-539 CNS
MALME-3M melanoma = system: MALME-3M melanoma
SK-MEL-28 melanoma = system: SK-MEL-28 melanoma
KM12 colon = system: KM12 colon
TK-10 renal = system: TK-10 renal
UACC-62 melanoma = system: UACC-62 melanoma
OVCAR-4 ovarian = system: OVCAR-4 ovarian
DU-145 prostate = system: DU-145 prostate
MDA-MB-468 breast = system: MDA-MB-468 breast
SW-620 colon = system: SW-620 colon
T-47D breast = system: T-47D breast
A549 NSCLC = system: A549 NSCLC
A498 renal = system: A498 renal
MDA-MB-435 melanoma = system: MDA-MB-435 melanoma
MCF7 breast = system: MCF7 breast
MOLT-4 leukemia = system: MOLT-4 leukemia
ACHN renal = system: ACHN renal
EKVX NSCLC = system: EKVX NSCLC
RXF 393 renal = system: RXF 393 renal
PC-3 prostate = system: PC-3 prostate

## O=C(NOCCO)c1cc(CN2OCCCC2=O)c(F)c(F)c1Nc1ccc(I)cc1F
BT-549 breast
  TGI: 72.1 µM
SK-OV-3 ovarian
  GI50: 8.12 µM
  TGI: 55.4 µM
SF-268 CNS
  GI50: 24.8 µM
  TGI: > 100 µM
CAKI-1 renal
  GI50: 0.059 µM
  TGI: 24.9 µM
NCI-H522 lung
  GI50: 5.97 µM
  TGI: 30.2 µM
SK-MEL-2 melanoma
  GI50: < 0.01 µM
  TGI: 0.019 µM
NCI-H226 lung
  GI50: 0.0421 µM
  TGI: 7.38 µM
UO-31 renal
  GI50: 0.133 µM
  TGI: 2.13 µM
SF-539 CNS
  GI50: 0.554 µM
  TGI: 4.03 µM
MALME-3M melanoma
  GI50: < 0.01 µM
  TGI: < 0.01 µM
SK-MEL-28 melanoma
  GI50: < 0.01 µM
  TGI: 0.0115 µM
KM12 colon
  GI50: 1.71 µM
  TGI: > 100 µM
TK-10 renal
  GI50: 0.198 µM
  TGI: 44.7 µM
UACC-62 melanoma
  GI50: < 0.01 µM
  TGI: 0.0869 µM
OVCAR-4 ovarian
  GI50: 17.4 µM
  TGI: > 100 µM
DU-145 prostate
  GI50: 1.41 µM
  TGI: > 100 µM
MDA-MB-468 breast
  GI50: 2.56 µM
  TGI: 13.8 µM
SW-620 colon
  GI50: < 0.01 µM
  TGI: > 100 µM
T-47D breast
  GI50: 21.5 µM
  TGI: 65.2 µM
A549 NSCLC
  GI50: 0.0535 µM
  TGI: 10.9 µM
A498 renal
  GI50: 0.236 µM
  TGI: 23.4 µM
MDA-MB-435 melanoma
  GI50: < 0.01 µM
  TGI: > 100 µM
MCF7 breast
  GI50: 5.12 µM
  TGI: 35.6 µM
MOLT-4 leukemia
  GI50: 7.81 µM
  TGI: 20.6 µM
ACHN renal
  GI50: 3.48 µM
  TGI: > 100 µM
EKVX NSCLC
  GI50: 0.201 µM
  TGI: 14.9 µM
RXF 393 renal
  GI50: 0.498 µM
  TGI: 7.61 µM
PC-3 prostate
  GI50: 34.4 µM
  TGI: > 100 µM
